Blank lines part the entries; values can stand above or below the molecule they belong to. Active and inactive are the calls of the source. The rule behind the calls is not given here.
Assays:
[1] = system: 3T3-L1; assay: Effect on adipogenesis in mouse 3T3L1 cells in DI media assessed as reduction in lipid accumulation at 50 uM measured on day 8 by fluorescence-based AdipoRed assay; assay type: functional, cell-based
[2] = Cytotoxicity against mouse 3T3L1 cells assessed as effect on lactate dehydrogenase release at 5 to 50 uM measured on day 2; assay type: cell-based; settings: 3t3-l1, 50 µM
[3] = molecular target: T1, Peroxisome proliferator-activated receptor gamma (Mus musculus) (UniProt P37238); assay: Agonist activity at PPAR-gamma in mouse embryo fibroblast at 5 to 50 uM by transactivation assay relative to rosiglitazone
T1 sequence (whole entry): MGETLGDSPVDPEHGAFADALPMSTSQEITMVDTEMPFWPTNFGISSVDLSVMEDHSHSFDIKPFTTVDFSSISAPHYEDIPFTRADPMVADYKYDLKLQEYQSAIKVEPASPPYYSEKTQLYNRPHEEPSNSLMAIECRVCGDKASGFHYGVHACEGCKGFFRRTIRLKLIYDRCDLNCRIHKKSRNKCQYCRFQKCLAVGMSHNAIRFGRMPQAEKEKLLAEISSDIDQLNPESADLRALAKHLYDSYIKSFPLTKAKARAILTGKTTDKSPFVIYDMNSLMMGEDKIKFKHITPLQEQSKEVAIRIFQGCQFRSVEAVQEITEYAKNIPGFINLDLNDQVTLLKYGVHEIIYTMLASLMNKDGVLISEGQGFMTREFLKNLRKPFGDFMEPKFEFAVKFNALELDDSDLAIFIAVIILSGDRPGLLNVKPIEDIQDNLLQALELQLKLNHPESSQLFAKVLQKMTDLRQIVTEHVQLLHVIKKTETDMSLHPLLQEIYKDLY

[4] = Effect on adipogenesis in mature mouse 3T3L1 cells assessed as upregulation of Sirt1 gene expression; assay type: functional, cell-based; settings: 3T3-L1
[5] = Cytotoxicity against mouse 3T3L1 cells assessed as effect on lactate dehydrogenase release at 5 to 50 uM measured on day 8; assay type: cell-based; settings: 3t3-l1, 50 µM
[6] = system: 3T3-L1; assay: Reduction of adipogenesis in mouse 3T3L1 cells assessed as decrease in lipid accumulation measured on day 8 by oil red o assay; assay type: functional, cell-based
[7] = molecular target: T2, Peroxisome proliferator-activated receptor alpha (Homo sapiens) (UniProt Q07869); assay: Agonist activity at PPAR-alpha (unknown origin) by transactivation assay
T2 sequence (whole entry): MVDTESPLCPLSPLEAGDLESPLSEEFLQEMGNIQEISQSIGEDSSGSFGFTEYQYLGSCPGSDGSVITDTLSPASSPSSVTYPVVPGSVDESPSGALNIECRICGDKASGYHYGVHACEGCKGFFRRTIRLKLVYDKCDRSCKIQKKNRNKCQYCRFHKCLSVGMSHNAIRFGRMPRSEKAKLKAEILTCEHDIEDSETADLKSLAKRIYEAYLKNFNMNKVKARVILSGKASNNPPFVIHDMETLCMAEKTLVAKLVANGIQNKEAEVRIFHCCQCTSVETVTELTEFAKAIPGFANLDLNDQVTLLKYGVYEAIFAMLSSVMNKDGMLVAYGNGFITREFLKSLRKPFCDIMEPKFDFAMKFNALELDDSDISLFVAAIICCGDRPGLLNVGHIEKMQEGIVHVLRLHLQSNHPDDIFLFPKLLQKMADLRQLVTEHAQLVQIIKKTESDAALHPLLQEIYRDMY

[8] = molecular target: Peroxisome proliferator-activated receptor gamma (Mus musculus) (UniProt P37238); assay: Partial agonist activity at PPAR-gamma in mouse embryo fibroblast assessed as reduction in activation by transactivation assay in presence of rosiglitazone
[9] = Cytotoxicity against mouse 3T3L1 cells assessed as LDH release at 50 uM after 48 hrs; assay type: cell-based; settings: 3t3-l1, 48 h
[10] = system: 3T3-L1; assay: Effect on adipogenesis in mouse 3T3L1 cells in DI media assessed as increase in lipid accumulation at <25 uM after 8 days by fluorescence-based AdipoRed assay; assay type: functional, cell-based
[11] = system: 3T3-L1; assay: Activation of AMPK in mouse 3T3L1 cells assessed as AMPK phosphorylation at 50 uM after 5 to 48 hrs by Western blotting analysis; assay type: cell-based
[12] = system: 3T3-L1; assay: Induction of lipolysis in mouse 3T3L1 cells assessed as up-regulation of Acox1 gene exression by real time-qPCR analysis; assay type: functional, cell-based
[13] = molecular target: T1, Peroxisome proliferator-activated receptor gamma (Mus musculus); assay: Agonist activity at PPAR-gamma in mouse embryo fibroblast by transactivation assay relative to rosiglitazone
[14] = molecular target: T3, Peroxisome proliferator-activated receptor delta (Homo sapiens) (UniProt Q03181); assay: Agonist activity at PPAR-delta (unknown origin) by transactivation assay
T3 sequence (whole entry): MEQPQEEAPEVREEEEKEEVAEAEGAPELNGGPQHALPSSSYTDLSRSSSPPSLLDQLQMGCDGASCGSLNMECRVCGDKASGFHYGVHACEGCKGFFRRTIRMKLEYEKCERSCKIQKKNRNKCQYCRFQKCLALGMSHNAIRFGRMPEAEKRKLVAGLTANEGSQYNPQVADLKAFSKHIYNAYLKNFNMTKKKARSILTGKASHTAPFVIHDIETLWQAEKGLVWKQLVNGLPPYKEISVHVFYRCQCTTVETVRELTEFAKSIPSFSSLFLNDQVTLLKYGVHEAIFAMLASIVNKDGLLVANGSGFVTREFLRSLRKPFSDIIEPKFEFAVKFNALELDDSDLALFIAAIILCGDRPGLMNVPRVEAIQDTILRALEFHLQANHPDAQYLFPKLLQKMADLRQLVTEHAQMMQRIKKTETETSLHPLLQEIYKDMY

[15] = system: 3T3-L1; assay: Reduction in triglyceride release in mouse 3T3L1 cells at 50 uM after 48 hrs by fluorescence-based AdipoRed assay; assay type: functional, cell-based
[16] = system: 3T3-L1; assay: Reduction in lipogenesis in mouse 3T3L1 cells assessed as down regulation of Scd1 gene exression by real time-qPCR analysis; assay type: functional, cell-based
[17] = molecular target: T4, Peroxisome proliferator-activated receptor gamma (Homo sapiens) (UniProt P37231); assay: Competitive binding to human GST-tagged PPAR-gamma at <=100 uM by TR-FRET assay
T4 sequence (whole entry): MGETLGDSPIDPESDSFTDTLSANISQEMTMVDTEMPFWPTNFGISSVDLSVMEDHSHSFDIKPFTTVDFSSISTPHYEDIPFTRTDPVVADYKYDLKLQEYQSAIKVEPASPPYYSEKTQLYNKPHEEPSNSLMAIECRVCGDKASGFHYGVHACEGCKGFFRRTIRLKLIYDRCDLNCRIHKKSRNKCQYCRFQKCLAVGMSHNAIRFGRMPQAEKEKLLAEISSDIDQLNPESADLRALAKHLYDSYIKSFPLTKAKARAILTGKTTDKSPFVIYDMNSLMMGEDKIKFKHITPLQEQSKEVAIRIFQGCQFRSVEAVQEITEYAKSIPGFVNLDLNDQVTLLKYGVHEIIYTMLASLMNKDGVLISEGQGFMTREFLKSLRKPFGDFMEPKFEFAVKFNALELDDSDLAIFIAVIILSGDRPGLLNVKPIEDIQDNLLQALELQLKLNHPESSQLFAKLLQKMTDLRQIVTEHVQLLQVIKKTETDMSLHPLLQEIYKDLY

[18] = system: 3T3-L1; assay: Effect on lipolysis in mouse 3T3L1 cells assessed as reduction in glycerol level at 5 to 50 uM after 48 hrs by UV-Vis spectrophotometry; assay type: functional, cell-based
[19] = system: 3T3-L1; assay: Reduction in triglyceride release in mouse 3T3L1 cells at 50 uM after 48 hrs by oil red o assay; assay type: functional, cell-based
[20] = system: 3T3-L1; assay: Effect on adipogenesis in mouse 3T3L1 cells in DI media assessed as reduction in fat-laden mature adipocytes at 50 uM after 8 days by oil red o assay; assay type: functional, cell-based
[21] = system: 3T3-L1; assay: Effect on adipogenesis in mouse 3T3L1 cells in DI media assessed as increase in fat-laden mature adipocytes at <25 uM after 8 days by oil red o assay; assay type: functional, cell-based
[22] = system: 3T3-L1; assay: Reduction of adipogenesis in mouse 3T3L1 cells assessed as decrease in lipid accumulation measured on day 8 by fluorescence-based AdipoRed assay; assay type: functional, cell-based
[23] = molecular target: T5, Peroxisome proliferator-activated receptor gamma (Homo sapiens, UniProt P37231); assay: Binding affinity to PPAR-gamma (unknown origin)
T5 sequence (P37231 whole entry): T4 sequence (whole entry)

[24] = system: 3T3-L1; assay: Effect on adipogenesis in mouse 3T3L1 cells assessed as increase in lipid accumulation at 5 to 50 uM measured on day 8 by fluorescence-based AdipoRed assay; assay type: functional, cell-based
[25] = molecular target: Peroxisome proliferator-activated receptor gamma (Mus musculus) (UniProt P37238); assay: Partial agonist activity at PPAR-gamma in mouse embryo fibroblast assessed as reduction in activation at 5 to 50 uM by transactivation assay in presence of rosiglitazone
[26] = system: 3T3-L1; assay: Effect on adipogenesis in mouse 3T3L1 cells assessed as increase in lipid accumulation at 5 to 50 uM measured on day 8 by oil red o assay; assay type: functional, cell-based
[27] = system: 3T3-L1; assay: Effect on adipogenesis in mouse 3T3L1 cells assessed as reduction in Cebpa gene expression at 5 to 50 uM after 4 days by real time quantitative PCR analysis relative to vehicle-treated control; assay type: functional, cell-based
[28] = system: 3T3-L1; assay: Effect on adipogenesis in mouse 3T3L1 cells assessed as reduction in Srebf1 gene expression at 5 to 50 uM after 4 days by real time quantitative PCR analysis relative to vehicle-treated control; assay type: functional, cell-based
[29] = system: 3T3-L1; assay: Effect on adipogenesis in mouse 3T3L1 cells in DI media assessed as increase in fat-laden mature adipocytes after 8 days by oil red o assay; assay type: functional, cell-based
[30] = system: 3T3-L1; assay: Effect on adipogenesis in mouse 3T3L1 cells assessed as reduction in Cebpa gene expression at 5 to 50 uM after 8 days by real time quantitative PCR analysis relative to vehicle-treated control; assay type: functional, cell-based
[31] = system: 3T3-L1; assay: Effect on adipogenesis in mouse 3T3L1 cells assessed as reduction in Adipoq gene expression at 5 to 50 uM after 4 days by real time quantitative PCR analysis relative to vehicle-treated control; assay type: functional, cell-based
[32] = system: 3T3-L1; assay: Effect on adipogenesis in mouse 3T3L1 cells assessed as reduction in Pparg gene expression at 5 to 50 uM after 4 days by real time quantitative PCR analysis relative to vehicle-treated control; assay type: functional, cell-based
[33] = system: 3T3-L1; assay: Effect on adipogenesis in mouse 3T3L1 cells assessed as reduction in Fabp4 gene expression at 5 to 50 uM after 8 days by real time quantitative PCR analysis relative to vehicle-treated control; assay type: functional, cell-based
[34] = system: 3T3-L1; assay: Effect on adipogenesis in mouse 3T3L1 cells assessed as reduction in Fabp4 gene expression at 5 to 50 uM after 4 days by real time quantitative PCR analysis relative to vehicle-treated control; assay type: functional, cell-based
[35] = system: 3T3-L1; assay: Effect on adipogenesis in mouse 3T3L1 cells assessed as reduction in Adipoq gene expression at 5 to 50 uM after 8 days by real time quantitative PCR analysis relative to vehicle-treated control; assay type: functional, cell-based
[36] = system: 3T3-L1; assay: Induction of lipolysis in mouse 3T3L1 cells assessed as up-regulation of Atgl gene exression by real time-qPCR analysis; assay type: functional, cell-based
[37] = system: 3T3-L1; assay: Effect on adipogenesis in mouse 3T3L1 cells in DI media assessed as increase in lipid accumulation after 8 days by fluorescence-based AdipoRed assay; assay type: functional, cell-based
[38] = system: 3T3-L1; assay: Effect on adipogenesis in mouse 3T3L1 cells assessed as reduction in Pparg gene expression at 5 to 50 uM after 8 days by real time quantitative PCR analysis relative to vehicle-treated control; assay type: functional, cell-based
[39] = system: 3T3-L1; assay: Effect on adipogenesis in mouse 3T3L1 cells assessed as increase in Srebf1 gene expression at 5 to 50 uM after 8 days by real time quantitative PCR analysis relative to vehicle-treated control; assay type: functional, cell-based
[40] = system: 3T3-L1; assay: Activation of AMPK in mouse 3T3L1 cells assessed as AMPK phosphorylation at 500 uM after 5 hrs by Western blotting analysis; assay type: cell-based

Compound: COc1ccc(-c2c(-c3ccccc3Br)oc3cc(O)ccc3c2=O)cc1
Activity [1]: Active
Activity [2]: Non-toxic
Activity [3]: 4%
Activity [4]: inactive
Activity [5]: Non-toxic
Activity [6]: Dose-dependent effect
Activity [7]: inactive
Activity [8]: Dose-dependent effect
Activity [9]: Toxic
Activity [10]: Active
Activity [11]: inactive
Activity [12]: Active
Activity [13]: Dose-dependent effect
Activity [14]: inactive
Activity [15]: Active
Activity [16]: Active
Activity [17]: Active
Activity [18]: Active
Activity [19]: Active
Activity [20]: Active
Activity [21]: Active
Activity [22]: Dose-dependent effect

Compound: NC(=O)c1ncn([C@@H]2O[C@H](CO)[C@@H](O)[C@H]2O)c1N
Activity [40]: Active

Further lines, with some results ahead:

IC50 [23]: 124 µM
Compound: COc1ccc(C2COc3cc(O)ccc3C2=O)cc1 (stereo unspecified)

Activity [25]: Active
Activity [3]: inactive
Activity [17]: inactive
Compound: COc1ccc(-c2coc3cc(O)ccc3c2=O)cc1 [FORMONONETIN]
Activity [24]: Active
Activity [2]: Non-toxic
Activity [4]: inactive
Activity [26]: Active
Activity [5]: Non-toxic
Activity [27]: Active
Activity [28]: inactive
Activity [9]: Non-toxic
Activity [29]: Dose-dependent effect
Activity [11]: inactive
Activity [30]: Active
Activity [15]: inactive
Activity [31]: Active
Activity [32]: Active
Activity [33]: Active
Activity [18]: Active
Activity [34]: Active
Activity [35]: Active
Activity [19]: inactive
Activity [36]: Active
Activity [37]: Dose-dependent effect
Activity [38]: Active
Activity [39]: inactive

IC50 [23]: 26 µM
Compound: COc1ccc(C(C)C(=O)c2ccc(O)cc2O)cc1 (stereo unspecified)

— ChEMBL document CHEMBL3352398, “2-(2-Bromophenyl)-formononetin and 2-heptyl-formononetin are PPARγ partial agonists and reduce lipid accumulation in 3T3-L1 adipocytes” (Bioorg Med Chem, 2014)
